In patent publication US8440695B2 (St Jude Children's Research Hospital, priority 2005, dated 2013):
“Also recorded” adds a separate entry of the source.

Legend:
ATM^+/+ apoE^−/− mice = test: Atherosclerosis by the en face technique in Western diet-fed mice; assay type: in vivo, mouse; conditions: 7 mg/kg/week i.p., 8 weeks Western diet, vs saline
Description: Atherosclerosis was measured using the en face or aortic origin technique. For the former, pinned aortas were imaged with a digital camera and analyzed by using an image-processing program. The percentage of involvement of the intimal surface area is reported for the arch (encompassing the surface from the aortic valve to the left subclavian artery), the thoracic aorta (extending to the final intercostal artery), and the abdominal aorta (to the ileal bifurcation). For the aortic origin technique, mean lesion size for each animal was quantified by the degree of lipid staining of cross-sections of aortic tissue as described. Anesthetized mice were exsanguinated, the heart and aortic arch were perfused, then tissues were removed en bloc and frozen immediately in tissue freeze medium. For each sample, 64 sections were made on a cryostat beginning just caudal to the aortic sinus and extending into the proximal aorta at 10 μm intervals. Slides were fixed with 60% isopropanol and stained with Oil Red O. For each heart, lesions in eight sections at 80 μm intervals were quantified using image analysis software calibrated using a hemocytometer grid.
(§5) The mice were then fed the Western-type diet as described.
The quantification of aortic lesions involved cleaning the aortas and pinning them on a wax matrix with the intimal surface facing upward (en face). Images were captured with a digital camera, edited for artifacts, and data were reported as the percent involvement of the arch (encompassing the surface from the aortic valve to the left subclavian artery), thoracic aorta (extending to the last intercostal artery), and abdominal aorta (to the ileal bifurcation). At the time of isolation, hearts were embedded in optical coherence tomography (OCT) media and frozen to permit quantification of lesion formation by staining of serial cryostat-cut sections of the aortic sinus, if necessary.

[1] = tested on: ATM^+/+ apoE^−/− and ATM^−/− apoE^−/− mice; test: Tail-cuff systolic and diastolic blood pressure in Western diet-fed mice; assay type: in vivo, mouse; conditions: 7 mg/kg/week, 8 weeks Western diet, vs saline
Description: Systolic blood pressure (SBP) and diastolic blood pressure (DBP) were measured after 8 weeks of Western diet feeding in ATM^+/+, ATM^+/−, and ATM^−/− mice. […] A plethysmography device (such as those supplied by Kent Scientific, Litchfield, Conn.) was used for tail cuff blood pressure determinations in acclimated, warmed mice performed by a technician blinded to treatment status, according to the manufacturer's instructions. Results were reported as the mean of 5-8 measurements on each day of 3 consecutive days.
Systolic and diastolic blood pressures were measured over several days in conscious mice using a tail-cuff system (Kent Scientific, Litchfield, Conn.) as described (Bernal-Mizrachi et al., 2003; Nat. Med. 9:1069-1075). Animals were habituated to the blood pressure apparatus for several days before data were collected. Five to eight measurements were recorded for each mouse at each of three daily sessions. Results are presented as the mean of those measurements on consecutive days.

[2] = tested on: ATM^+/+apoE^−/− and ATM^−/−apoE^−/− mice; test: Intraperitoneal glucose tolerance test in Western diet-fed mice; assay type: in vivo, mouse
Description: For glucose tolerance and insulin tolerance tests, mice were fasted and injected with 10% D-glucose (1 g/kg) or human regular insulin (0.75 units/kg body weight, Eli Lilly and Co., Indianapolis, Ind.) in procedures separated by at least one week. Tail vein blood (5-10 µl) was assayed for glucose at 0, 30, 60, and 120 minutes. Blood glucose was assayed using a glucose meter (Hemocue, Mission Viejo, Calif. or Becton Dickinson, San Jose, Calif.). The area under the glucose and insulin curves (AUC) during the OGTT and ITT were calculated using the formula: 0.25 (fasting value)+0.5 (½ h value)+0.75 (1 h value)+0.5 (2 h value).
The glucose tolerance and insulin tolerance tests were performed on mice that were fasted for 12 hours and then injected with 10% D-glucose (1 g/kg) or human regular insulin (0.75 units/kg body weight, Eli Lilly and Co., Indianapolis, Ind.) in procedures separated by at least one week. Tail vein blood (5-10 μl) was assayed for glucose at 0, 30, 60, and 120 minutes. Blood glucose was assayed using a glucose meter (Hemocue, Mission Viejo, Calif.). The area under the glucose and insulin curves (AUC) during the OGTT and ITT were calculated using the formula: 0.25 (fasting value)+0.5 (½ h value)+0.75 (1 h value)+0.5 (2 h value), as described by Haffner et al., N. Engl.
as §5

[3] = Body weight, metabolic rate (indirect calorimetry) and fasting serum lipids in mice; assay type: in vivo, mouse; conditions: ATM^+/+ apoE^−/− mice, 7 mg/kg/week, 4 and 8 weeks Western diet
Description: as §5
All of these experiments were performed using ATM^+/+ apoE^−/− littermate mice beginning at the age of 8 weeks.
Serum is generally obtained after a four hour fast and assayed for routine chemistries (glucose, triglycerides, cholesterol, and non-esterified fatty acids) using an automated plate reader connected to a computer, as described by Li et al., Nat.

p53 = conditions: low dose chloroquine, 3.5 mg/kg per injection i.p.
Source text: (§1) However, low level activation of ATM as detected with an antibody that recognizes serine phosphorylation at residue 1981, may also be used in the assay.

lipoprotein lipase (LPL) = test: LPL enzyme activity in peritoneal macrophages from treated mice; assay type: in vivo, mouse; conditions: ATM^+/+ mice treated systemically, vs saline
Description: For LPL assays, cells were fed on day 6. On day 7, cells were washed and incubated in DMEM plus 0.5% BSA for 4 hr, followed by incubation with 10 U/ml heparin, collection of media, and subsequent determination of LPL activity as described (Coleman et al., 1995; J. Biol. Chem. 270:12518-12525).
Briefly, lipoprotein lipase (LPL) enzyme activity is determined by measuring the release of labeled fatty acids from a triolein emulsion in macrophages. Cells were fed on day 6. On day 7, cells were washed and incubated in DMEM plu 0.5% BSA for 4 hours, followed by incubation with 10 U/ml heparin, collection of media, and subsequent determination of LPL activity as described by Coleman et al., J. Biol. Chem., 1995, 270:12518-12525. Macrophages from the same sources were used in the assays.

ob/ob mice = test: Blood glucose and fasting insulin in ob/ob mice; assay type: in vivo, mouse
Description: (§2) Two month old male db/db (Lepr^db; LEPR-deficient mice having excess adiposity) mice and ob/ob (Lep^ob, genetically obese) mice were purchased from Harlan (Indianapolis, Ind.) and the Jackson Laboratory, respectively.
(§3) Blood glucose in male db/db mice were treated with either CHQ or saline. Baseline represents the average fed blood glucose levels of the 12 db/db mice.

db/db mice = test: Fed blood glucose in db/db mice; assay type: in vivo, mouse; conditions: male db/db mice, vs baseline and saline
Description: as §2, §3

[4] = tested on: subjects with the metabolic syndrome; test: Hyperinsulinemic-euglycemic clamp in subjects with the metabolic syndrome; assay type: in vivo, human
Description: (§4) Glucose and insulin tolerance tests are generally performed using D-glucose (1 g/kg) and insulin (0.75 U/kg), which are administered in separate procedures followed by serial measurements of blood glucose. If necessary, an oral glucose tolerance test (OGTT) will be performed the day after completing the clamp. After an overnight fast, an intravenous catheter will be placed, baseline labs will be obtained, 75 g of glucose will be consumed, and blood glucose, insulin, C peptide, and glucagon will be determined every half hour for 2 hours.
Two subjects with the metabolic syndrome have completed the protocol. The mean glucose infusion rate to maintain euglycemia (90 mg/dl) at steady state during the first stage of the clamp (using an insulin infusion rate of 15 mU/m^2/min) for these two subjects was determined.
Clamps are performed with infusion of stable isotope-labeled glucose to allow the determination of both glucose disposal rates and hepatic glucose output during hyperinsulinemic-euglycemic clamps in subjects with the metabolic syndrome. The results are presented as the mean for two subjects.

[5] = tested on: subjects with the metabolic syndrome; test: Fasting lipids and lipoproteins in subjects with the metabolic syndrome; assay type: in vivo, human; conditions: for Total Cholesterol / HDL cholesterol / LDL cholesterol / Triglycerides: 3 weeks; for Total Cholesterol: average of two subjects, placebo 206; for HDL cholesterol: placebo 47; for LDL cholesterol: placebo 132; for Triglycerides: placebo 139
[6] = tested on: subjects with the metabolic syndrome; test: Ambulatory blood pressure, glucose tolerance test and body weight in subjects with the metabolic syndrome; assay type: in vivo, human; conditions: two subjects
Description: as §4

[7] = tested on: ApoE-null model mice lacking a single allele of ATM; test: ApoE-null mice lacking a single allele of ATM on high fat diet, chloroquine treatment; assay type: in vivo, mouse; conditions: 7 mg/kg per week
retina = conditions: several groups; cited from earlier work
[8] = tested on: patients with type 2 diabetes; conditions: cited from earlier work
ATM [9] = target: T1, ATM (Homo sapiens, UniProt Q13315); test: ATM activation in cultured cells; assay type: cell-based; design: endogenous in cells; conditions: low concentrations
Source text: as §1
Target sequence in this assay (Q13315 whole entry, species assumed): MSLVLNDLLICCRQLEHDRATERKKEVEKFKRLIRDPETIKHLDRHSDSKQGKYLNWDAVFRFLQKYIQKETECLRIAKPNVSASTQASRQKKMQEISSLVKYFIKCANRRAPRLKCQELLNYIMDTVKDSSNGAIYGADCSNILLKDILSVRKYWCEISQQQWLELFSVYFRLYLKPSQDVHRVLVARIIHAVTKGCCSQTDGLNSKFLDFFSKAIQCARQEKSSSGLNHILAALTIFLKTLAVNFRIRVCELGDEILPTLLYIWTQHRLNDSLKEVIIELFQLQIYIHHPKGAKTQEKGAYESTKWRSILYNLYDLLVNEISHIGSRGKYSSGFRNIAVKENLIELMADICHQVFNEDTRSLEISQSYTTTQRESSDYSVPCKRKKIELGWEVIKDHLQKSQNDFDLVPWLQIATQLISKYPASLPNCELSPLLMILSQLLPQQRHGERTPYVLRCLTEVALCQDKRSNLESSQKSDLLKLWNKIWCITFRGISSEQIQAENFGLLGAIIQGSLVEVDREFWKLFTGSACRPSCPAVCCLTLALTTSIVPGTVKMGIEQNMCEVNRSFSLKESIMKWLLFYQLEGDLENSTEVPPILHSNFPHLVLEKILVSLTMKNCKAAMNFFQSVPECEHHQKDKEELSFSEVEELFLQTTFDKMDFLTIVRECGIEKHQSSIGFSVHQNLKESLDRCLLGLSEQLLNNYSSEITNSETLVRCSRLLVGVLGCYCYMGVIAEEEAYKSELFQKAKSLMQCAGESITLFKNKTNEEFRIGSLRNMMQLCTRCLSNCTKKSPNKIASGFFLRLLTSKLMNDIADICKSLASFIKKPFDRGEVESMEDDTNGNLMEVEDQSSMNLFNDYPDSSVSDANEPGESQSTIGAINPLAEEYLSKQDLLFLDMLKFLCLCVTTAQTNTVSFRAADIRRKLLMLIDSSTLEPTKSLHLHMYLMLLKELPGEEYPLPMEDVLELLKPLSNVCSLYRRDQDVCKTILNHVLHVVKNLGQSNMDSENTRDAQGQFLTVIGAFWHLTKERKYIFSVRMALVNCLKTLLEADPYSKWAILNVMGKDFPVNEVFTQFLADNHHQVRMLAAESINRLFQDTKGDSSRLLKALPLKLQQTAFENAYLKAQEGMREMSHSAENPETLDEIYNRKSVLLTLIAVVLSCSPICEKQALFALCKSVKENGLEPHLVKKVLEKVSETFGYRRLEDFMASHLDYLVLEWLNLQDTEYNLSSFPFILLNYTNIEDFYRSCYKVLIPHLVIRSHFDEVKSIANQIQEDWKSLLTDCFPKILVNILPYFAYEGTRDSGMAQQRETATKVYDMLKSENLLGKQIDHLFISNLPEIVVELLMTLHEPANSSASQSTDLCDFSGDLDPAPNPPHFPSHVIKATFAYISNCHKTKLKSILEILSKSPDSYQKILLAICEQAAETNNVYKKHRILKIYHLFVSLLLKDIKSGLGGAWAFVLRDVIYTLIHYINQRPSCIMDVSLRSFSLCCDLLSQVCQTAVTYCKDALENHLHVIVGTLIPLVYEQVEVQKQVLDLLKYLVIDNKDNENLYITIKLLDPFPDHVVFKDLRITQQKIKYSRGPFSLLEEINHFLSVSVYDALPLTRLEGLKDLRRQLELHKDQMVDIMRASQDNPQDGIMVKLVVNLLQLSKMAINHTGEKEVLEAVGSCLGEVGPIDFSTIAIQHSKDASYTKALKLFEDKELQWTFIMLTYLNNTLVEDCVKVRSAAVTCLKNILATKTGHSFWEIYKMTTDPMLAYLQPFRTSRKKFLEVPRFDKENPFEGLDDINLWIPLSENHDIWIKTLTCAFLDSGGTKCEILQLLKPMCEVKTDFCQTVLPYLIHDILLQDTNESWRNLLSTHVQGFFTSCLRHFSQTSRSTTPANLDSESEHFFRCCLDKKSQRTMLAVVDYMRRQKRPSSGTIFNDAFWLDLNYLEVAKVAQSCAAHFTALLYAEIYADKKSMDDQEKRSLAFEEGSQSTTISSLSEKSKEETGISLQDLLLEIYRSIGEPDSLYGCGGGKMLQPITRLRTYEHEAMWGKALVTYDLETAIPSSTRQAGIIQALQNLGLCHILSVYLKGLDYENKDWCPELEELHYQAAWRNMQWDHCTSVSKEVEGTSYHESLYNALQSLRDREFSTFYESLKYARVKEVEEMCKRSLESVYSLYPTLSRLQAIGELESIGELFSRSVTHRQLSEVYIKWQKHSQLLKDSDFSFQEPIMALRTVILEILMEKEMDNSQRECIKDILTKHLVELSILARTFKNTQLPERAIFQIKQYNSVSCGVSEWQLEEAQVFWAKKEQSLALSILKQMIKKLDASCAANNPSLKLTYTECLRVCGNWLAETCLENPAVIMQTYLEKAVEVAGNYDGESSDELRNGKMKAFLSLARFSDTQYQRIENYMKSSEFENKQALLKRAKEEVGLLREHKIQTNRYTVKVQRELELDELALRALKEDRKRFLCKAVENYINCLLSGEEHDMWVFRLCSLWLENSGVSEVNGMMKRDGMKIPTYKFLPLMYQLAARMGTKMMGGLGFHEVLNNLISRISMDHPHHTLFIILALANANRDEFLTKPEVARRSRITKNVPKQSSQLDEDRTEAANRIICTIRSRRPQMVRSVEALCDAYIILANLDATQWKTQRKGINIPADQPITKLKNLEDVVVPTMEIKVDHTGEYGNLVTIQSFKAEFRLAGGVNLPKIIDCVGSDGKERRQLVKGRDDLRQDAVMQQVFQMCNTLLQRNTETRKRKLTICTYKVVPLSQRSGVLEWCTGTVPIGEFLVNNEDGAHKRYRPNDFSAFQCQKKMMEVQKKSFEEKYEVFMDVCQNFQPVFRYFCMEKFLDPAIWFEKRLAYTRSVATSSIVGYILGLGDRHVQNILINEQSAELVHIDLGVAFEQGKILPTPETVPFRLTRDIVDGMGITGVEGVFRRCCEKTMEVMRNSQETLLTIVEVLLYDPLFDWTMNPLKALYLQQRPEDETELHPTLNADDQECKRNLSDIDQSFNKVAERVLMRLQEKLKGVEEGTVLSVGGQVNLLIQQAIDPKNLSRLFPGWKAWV

ATM [10] = target: T1, ATM; test: Activated ATM (Ser1981P-ATM Western blot) in monocytes of treated subjects; assay type: in vivo; design: lysates were immunoprecipitated using a total ATM antibody (D1611); endogenous in cells; host or cells: adherent peripheral blood monocytes from human subjects with metabolic syndrome
Description: Anticoagulated blood was added to commercially available tubes containing Histopaque, and mononuclear cells were collected after centrifugation. These cells were subjected to a brief second spin using a discontinuous sucrose gradient to remove platelets (which can interfere with the adherence of monocytes to culture dishes), then the mononuclear cells were placed in tissue culture dishes. Two hours later, lymphocytes were washed away, and adherent monocytes were collected and frozen in appropriate media so that cells from different limbs of the protocol can subsequently be studied in the same assays. […] For activated ATM determinations, lysates were immunoprecipitated using a total ATM antibody (D1611). The immunoprecipitated samples were blotted for activated ATM using a monoclonal antibody recognizing Ser1981P-ATM. The gels included a positive control of 293 cells treated with camptothecin. Total lysates were used to blot activated p53 using a polyclonal antibody to Ser15P-p53 (cell signaling). To confirm the p53 data, total lysates were tested using an ELISA-based p53 DNA binding assay (TransAM p53 activity assay from Active Motif).
Target sequence in this assay (Q13315 whole entry): as the sequence (Q13315 whole entry, species assumed) above

JNK = test: Phospho-JNK ELISA in cultured aortic smooth muscle cells after antisense transfection; assay type: cell-based, mouse; conditions: aortic smooth muscle cells from ATM^+/+apoE^−/− mice, 1.4 μmol/L, 72 hours
Description: When cultured aortic smooth muscle cells were treated with a morpholino antisense oligonucleotide to ATM, JNK activity was increased, providing direct evidence that interfering with ATM expression induces JNK activity, a mediator of insulin resistance. Analysis of phospho-JNK in vascular smooth muscle cells cultured from ATM^+/+apoE^−/− mice. Primary aortic smooth muscle cells were transfected with an anti-ATM oligonucleotide, or a control oligonucleotide or the vehicle ethoxylated polyethylenimine solution only. Cells were assayed by ELISA for phospho-JNK and total JNK as measured in U/ml/well of a 96-well plate. […] Increased expression of phospho-JNK was detected in tissues involved in systemic insulin action in all three ATM genotypes in apoE^−/− mice, as determined by analysis of Western blots for fat, skeletal muscle and liver. Comparisons were made between ATM-deficient and ATM wild-type animals.
Most of the mass of the aorta is composed of smooth muscle cells. Smooth muscle cells were cultured from the aortas of apoE^−/− mice by the explant technique as described by Weng et al., Proc. Natl. Acad. Sci. USA, 2003, 100:6730-6735. […] Successful transfection was confirmed by fluorescence microscopy and phospho-JNK and total JNK were assayed 72 hours later using a cell-based ELISA kit. […]

[11] = 80 mg/day, first stage of clamp, mean of two subjects
[12] = 80 mg/day for three weeks, two subjects
[13] = 1000 mg/day for three days (Powrie et al.)

With `CCN(CC)CCCC(C)Nc1ccnc2cc(Cl)ccc12` (stereo not shown) [chloroquine, N4-(7-Chloro-4-quinolinyl)-N1,N1-diethyl-1,4-pentanediamine] the “decrease of atherosclerosis (lesion area) at the abdominal aorta” value (ATM^+/+ apoE^−/− mice) was 25%, the “decrease of atherosclerosis (lesion area) at the arch” value (ATM^+/+ apoE^−/− mice) was 37% and the “decrease of atherosclerosis (lesion area) at the thoracic aorta” value (ATM^+/+ apoE^−/− mice) was 25%. The “lowering of systolic pressure” value [1] was 9 mm Hg, the glucose tolerance ([2]; ATM^+/+ apoE^−/− mice, 7 mg/kg/week, 8 weeks Western diet, vs saline) was “improved” and the glucose tolerance ([2]; ATM^−/−apoE^−/− mice, Western diet) was “not”. For the same molecule, the “serum lipids (fasting cholesterol, triglycerides, NEFA)” value [3] was “no effect”, the “p53 activation in fat and muscle as well as liver, aorta and cultured macrophages” value (p53) was “p53 activation” and the “LPL enzyme activity in peritoneal macrophages” value (lipoprotein lipase (LPL)) was “decreased”. For the same molecule, the fasting insulin levels (ob/ob mice; 7 mg/kg/week, saline 16,810±1,120, P<0.05) was 13,360±1996 pg/ml, the fasting glucose levels (ob/ob mice; 3 weeks after initiation, vs baseline and saline) was “lowered” and the fed glucose levels (ob/ob mice; vs baseline and saline) was “lowered”. The fed glucose levels (db/db mice) was “lowered”, the “increase in glucose infusion rate compared to placebo” value ([4]; 80 mg dose, second stage of clamp (insulin 40 mU/m^2/min)) was 23% and the “increase in glucose infusion rate to maintain the blood glucose” value ([4]; 80 mg per day oral, 3 weeks, first stage of clamp (insulin 15 mU/m^2/min), mean of two subjects) was 63%. The “decrease of hepatic glucose production” value [4, 11] was 58%, the “increase of glucose disposal in peripheral tissues” value [4, 11] was 62% and the “glucose infusion rate effect” value ([4]; 250 mg dose, clamp first and second stage) was “blunted effect”. For the same molecule, the “decrease in LDL cholesterol” value [5, 12] was 25%, the “decrease in total cholesterol” value [5, 12] was 17% and the decrease in triglycerides [5, 12] was 10%. For the same molecule, the “Total Cholesterol” value ([5]; chloroquine 80 mg/day) was 172 mg/dL, the HDL cholesterol ([5]; chloroquine 80 mg/day) was 47 mg/dL and the LDL cholesterol ([5]; chloroquine 80 mg/day) was 100 mg/dL. The Triglycerides ([5]; chloroquine 80 mg/day) was 125 mg/dL, the “Total Cholesterol” value ([5]; chloroquine 250 mg/day) was 169 mg/dL and the HDL cholesterol ([5]; chloroquine 250 mg/day) was 51 mg/dL. For the same molecule, the LDL cholesterol ([5]; chloroquine 250 mg/day) was 99 mg/dL, the Triglycerides ([5]; chloroquine 250 mg/day) was 129 mg/dL and the “ambulatory blood pressures (systolic, diastolic, mean arterial)” value [6] was “did not appear to be affected”. The atherosclerosis [7] was “significantly reduced”, the central adiposity [7] was “significantly reduced” and the glucose intolerance [7] was “significantly reduced”. The hypertension [7] was “significantly reduced”, the “cumulative doses with no effects (retinopathy)” value (retina) was 300 grams and the endogenous glucose production [8, 13] was “without affecting”. The “insulin resistance in peripheral tissues” value [8, 13] was “modestly decreased”, the “increase in the glucose infusion rate required to maintain euglycemia” value ([8]; 1000 mg/day for three days, patients with type 2 diabetes) was 13% and the “ATM activation in cultured cells” value (ATM [9]) was “activates”. The ATM activation (ATM [10]; 80 mg/day dose) was “greater activation”, the ATM activation (ATM [10]; 250 mg/day dose) was “blunted effect” and the “activation of ATM in monocytes” value (ATM [10]; three weeks of 80 mg/day or 250 mg/day, none with placebo) was “activation; also recorded: activated”.

In the case of “anti-ATM: lissamine-tagged Morpholino antisense oligonucleotide against mouse ATM, 5′-GTGCTAGACTCATGGTTTAAGATTT-3′ (SEQ ID NO:6) (all phosphorodiamidate morpholino (PMO); lissamine tag, position not given here)”, the “JNK activity (phospho-JNK normalized to total JNK)” value (JNK) is reported as “increased”.
